Experimental findings from patent US20060030615A1, “Progesterone receptor modulators comprising pyrrole-oxindole derivatives and uses thereof” (Wyeth, priority 2004, published 2006) are described below.

Molecules are shown by their SMILES. pIC50: −log10 of the molar value.

The target in one series is T1, progesterone receptor (Homo sapiens, UniProt P06401).
T1 construct: Effects of Progestins and Antiprogestins on Alkaline Phosphatase Activity in T47D cells; endogenous in cells; host or cells: T47D cells
T1 sequence (P06401 1-933): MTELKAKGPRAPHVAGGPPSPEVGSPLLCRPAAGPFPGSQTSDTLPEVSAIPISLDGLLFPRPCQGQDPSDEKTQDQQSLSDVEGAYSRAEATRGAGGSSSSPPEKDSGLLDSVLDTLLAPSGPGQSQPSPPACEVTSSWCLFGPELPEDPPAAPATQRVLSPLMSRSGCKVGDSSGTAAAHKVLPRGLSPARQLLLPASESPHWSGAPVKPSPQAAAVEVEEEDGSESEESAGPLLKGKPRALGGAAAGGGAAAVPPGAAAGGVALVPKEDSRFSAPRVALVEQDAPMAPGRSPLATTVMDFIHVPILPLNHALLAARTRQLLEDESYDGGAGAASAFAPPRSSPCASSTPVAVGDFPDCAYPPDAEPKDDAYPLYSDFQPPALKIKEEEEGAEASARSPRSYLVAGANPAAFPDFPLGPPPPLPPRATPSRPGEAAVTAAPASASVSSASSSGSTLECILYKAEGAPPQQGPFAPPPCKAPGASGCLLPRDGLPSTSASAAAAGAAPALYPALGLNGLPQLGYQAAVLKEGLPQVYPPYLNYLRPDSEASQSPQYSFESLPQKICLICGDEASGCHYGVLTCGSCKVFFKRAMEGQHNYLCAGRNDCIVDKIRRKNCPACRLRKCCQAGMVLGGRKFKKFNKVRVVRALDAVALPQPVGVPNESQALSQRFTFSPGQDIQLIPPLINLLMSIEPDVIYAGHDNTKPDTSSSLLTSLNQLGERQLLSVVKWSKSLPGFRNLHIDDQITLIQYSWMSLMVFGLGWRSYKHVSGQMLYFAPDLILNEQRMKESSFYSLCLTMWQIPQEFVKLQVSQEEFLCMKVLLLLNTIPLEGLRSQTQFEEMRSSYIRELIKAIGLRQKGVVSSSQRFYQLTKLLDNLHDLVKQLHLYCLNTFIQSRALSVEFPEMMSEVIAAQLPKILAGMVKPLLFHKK
Nature of the series: T47D Cell Alkaline Phosphatase Assay. The class given is cell-based. The conditions noted are these: antagonist mode, T47D cells, in the presence of 1 nM progesterone, 24 hours. As to the method: A. Effects of Progestins and Antiprogestins on Alkaline Phosphatase Activity in T47D cells (T47D Alkaline Phosphatase Assay)
The molecules of the present invention are anticipated to be active in the antagonist mode in the T47D alkaline phosphatase assay at concentrations of 3 μM or lower.
Culture medium: DMEM:F12 (1:1) (GIBCO, BRL) supplemented with 5% (v/v) charcoal stripped fetal bovine serum (not heat-inactivated), 100 U/ml penicillin, 100 μg/ml streptomycin, and 2 mM GlutaMax (GIBCO, BRL).
Alkaline phosphatase assay buffer: I. 0.1M Tris-HCI, pH 9.8, containing 0.2% Triton X-100, 0.1M Tris-HCI, pH 9.8, containing 4 mM p-nitrophenyl phosphate (Sigma).
2. Cell Culture And Treatment:
Frozen T47D cells are thawed in a 37° C. water bath and diluted to 280,000 cells/ml in culture medium. To each well in a 96-well plate (Falcon, Becton Dickinson Labware), 180 μl of diluted cell suspension is added. Twenty μl of reference or test compounds diluted in the culture medium is then added to each well. When testing for progestin antagonist activity, reference antiprogestins or test compounds are added in the presence of 1 nM progesterone. The cells are incubated at 37° C. in a 5% CO2 humidified atmosphere for 24 hours. For high throughput screening, one concentration of each compound will be tested at 0.3 μg/ml. Based on an average molecular weight of 300 g/mol for the compounds in the library, the concentration is approximately 1 μM. Subsequently, active compounds will be tested in dose response assays to determine EC50 and IC50.
3. Alkaline Phosphatase Enzyme Assay:
At the end of treatment, the medium is removed from the plate. Fifty μl of assay buffer I is added to each well. The plates are shaken in a titer plate shaker for 15 min. Then 150 μl of assay buffer II is added to each well. Optical density measurements are taken at 5 min intervals for 30 min. at a test wavelength of 405 nm.
4. Analysis of Dose-Response Data.
For reference and test compounds, a dose response curve is generated for dose vs. the rate of enzyme reaction (slope). Square root-transformed data are used for analysis of variance and nonlinear dose response curve fitting for both agonist and antagonist modes. Huber weighting is used to down-weight the effects of outliers. EC50 or IC50 values are calculated from the retransformed values. JMP software (SAS Institute, Inc.) is used for both one-way analysis of variance and non-4 linear dose response analysis in both single dose and dose response studies.
Progesterone and trimegestone are reference progestins and RU486 is the reference antiprogestin. All reference compounds are run in full dose response curves and the EC50 and IC50 values are calculated.
Take `Cn1c(C#N)ccc1-c1ccc2c(c1)CC(=O)N2` [1-methyl-5-(2-oxo-2,3-dihydro-1H-indol-5-yl)-1H-pyrrole-2-carbonitrile]: the pIC50 is 7.69. Consider `Cn1c(C#N)ccc1-c1ccc2c(c1)C1(CCCC1)C(=O)N2` [1-methyl-5-(2′-oxo-1′,2′-dihydrospiro[cyclopentane-1,3′-indol]-5′-yl)-1H-pyrrole-2-carbonitrile], for which the pIC50 is 7.52.

Take `CC1(C)C(=O)Nc2ccc(-c3ccc(C#N)[nH]3)cc21` [5-(3,3-Dimethyl-2-oxo-2,3-dihydro-1H-indol-5-yl)-1H-pyrrole-2-carbonitrile]: the pIC50 is 7.57. For `Cn1c(C#N)ccc1-c1ccc2c(c1)C1(CCC1)C(=O)N2` [1-methyl-5-(2′-oxo-1′,2′-dihydrospiro[cyclobutane-1,3′-indol]-5′-yl)-1H-pyrrole-2-carbonitrile], the pIC50 is 9.00.

On to `CN1C(=O)C(C)(C)c2cc(-c3ccc(C#N)n3C)ccc21` [1-methyl-5-(1,3,3-trimethyl-2-oxo-2,3-dihydro-1H-indol-5-yl)-1H-pyrrole-2-carbonitrile], for which the negative logarithm of the IC50 (pIC50) was 7.88. With `CC[C@H]1C(=O)Nc2ccc(-c3ccc(C#N)n3C)cc21` (single isomer, unassigned), the pIC50 was 8.21.

On to `CC[C@]1(C)C(=O)Nc2ccc(-c3ccc(C#N)n3C)cc21` (single isomer, unassigned), for which the pIC50 was 8.13. With `CC(C)(C)OC(=O)n1c(C#N)ccc1-c1ccc2c(c1)C1(CCCC1)C(=O)N2` [2-Cyano-5-(1,2-dihydro-2-oxospiro[cyclopentane-1,3-[3H]indol]-5-yl)-1H-pyrrole-1-carboxylic acid, tert-butyl ester], the pIC50 was 6.52. Regarding `CCC1(CC)C(=O)Nc2ccc(-c3ccc(C#N)n3C)cc21` [5-(3,3-Diethyl-2-oxo-2,3-dihydro-1H-indol-5-yl)-1-methyl-1H-pyrrole-2-carbonitrile], the pIC50 is 8.48. For `CC[C@@H]1C(=O)Nc2ccc(-c3ccc(C#N)n3C)cc21` (single isomer, unassigned), the negative logarithm of the IC50 (pIC50) was 7.88.

Turning to `CN1C(=O)C(C)(C)c2cc(-c3ccc(C#N)[nH]3)ccc21` [5-(1,3,3-trimethyl-2-oxo-2,3-dihydro-1H-indol-5-yl)-1H-pyrrole-2-carbonitrile], the pIC50 is 7.14. `Cn1c(C#N)ccc1-c1ccc2c(c1)C(C)(C)C(=O)N2` [5-(3,3-dimethyl-2-oxo-2,3-dihydro-1H-indol-5-yl)-1-methyl-1H-pyrrole-2-carbonitrile]: the pIC50 is 8.00. `Cn1c(C#N)ccc1-c1ccc2c(c1)C1(CC1)C(=O)N2` [1-methyl-5-(2′-oxo-1′,2′-dihydrospiro[cyclopropane-1,3′-indol]-5′-yl)-1H-pyrrole-2-carbonitrile]: the pIC50 was 8.09. The same measure, in the same setting: the figure for `CC[C@@]1(C)C(=O)Nc2ccc(-c3ccc(C#N)n3C)cc21` (single isomer, unassigned) is 8.49; for `N#Cc1ccc(-c2ccc3c(c2)C2(CCCC2)C(=O)N3)[nH]1` [5-(1,2-Dihydro-2-oxospiro[cyclopentane-1,3-[3H]indol]-5-yl)-1H-pyrrole-2-carbonitrile] it is 7.22. `CCC1C(=O)Nc2ccc(-c3ccc(C#N)n3C)cc21` (racemic) [5-(3-ethyl-2-oxo-2,3-dihydro-1H-indol-5-yl)-1-methyl-1H-pyrrole-2-carbonitrile]: the pIC50 was 8.24.

Tested on in a further series: not given
Assay: not given
Settings: not given
For `CCC1(CC)C(=O)Nc2ccc(-c3ccc(C#N)n3C)cc21` [5-(3,3-Diethyl-2-oxo-2,3-dihydro-1H-indol-5-yl)-1-methyl-1H-pyrrole-2-carbonitrile], the melting point fell in the range of 233 to 235 °C.

In the next series the test system is rat uterine decidualization. Nature of the series: Rat Decidualization Assay (mature ovariectomized rats). Type of series: in vivo. The note with it: rat decidual assay, po. The procedure:
B. Progestational and Antiprogestational Activity in Mature Ovariectomized Rats (Rat Decidualization Assay)
This assay is used to evaluate the effect of progestins and antiprogestins on rat uterine decidualization and compare the relative potencies of various test compounds.
Test compounds are dissolved in 100% ethanol and mixed with corn oil (vehicle). Stock solutions of the test compounds in oil (Mazola™) are then prepared by heating (˜80° C.) the mixture to evaporate ethanol. Test compounds are subsequently diluted with 100% corn oil or 10% ethanol in corn oil prior to the treatment of animals. No difference in decidual response was found when these two vehicles were compared. […]
Approximately 24 hr after the third injection, decidualization is induced in one of the uterine horns of anesthetized rats by scratching the antimesometrial luminal epithelium with a blunt 21 G needle. […] Approximately 24 hr following the final treatment, rats are sacrificed by CO asphyxiation and body weight measured. […]
In agonist mode, the increase in weight of the decidualized uterine horn is calculated by D-horn/C-horn and logarithmic transformation is used to maximize normality and homogeneity of variance. […] EC50 is calculated from the transformed value. […] IC50 is calculated from the retransformed value. […]
Regarding `Cn1c(C#N)ccc1-c1ccc2c(c1)C(C)(C)C(=O)N2` [5-(3,3-dimethyl-2-oxo-2,3-dihydro-1H-indol-5-yl)-1-methyl-1H-pyrrole-2-carbonitrile], the ED50 was 0.2 mg/k.

Usually pIC50 stands for the negative decadic logarithm of the IC50, by convention in mol/L. Usually melting point stands for the temperature of the solid-liquid transition.
